{"source": "patent US11135196B1", "about": "“Pharmaceutical composition and its use to inhibit membrane ACE2 expression” (priority 2020, dated 2021)", "key": {"ACE2 receptor [1]": {"tested_on": "ACE2 receptor", "experiment": "ACE2 ELISA assay in Human Small Airways Epithelial Cells (SAEC), 6 days", "conditions": "for decrease of ACE2 expression: FIG. 5A", "procedure": "Human Small Airways Epithelial Cells (SAEC), purchased from ATCC, (Manassas, Va., USA) were cultured in Airways Epithelial Cells growth medium (ATCC) in plastic flasks at 37° C. and 5% CO2. For the experiments, the cells (passage 5-7) were plated to collagen-covered 96-well plates in 100 μL/well growth medium and were grown to confluent layer for 4 to 7 days.\nFor the experiments, cells were supplemented with indicated doses of tested compounds in 100 μL/well of cell growth medium for 6 days with fresh media supplementations every 2 to 3 days. […] Culture plate wells were washed twice with phosphate buffered saline (PBS) and fixed with 3% formaldehyde/0.5% Triton X-100/PBS solution for 1 hour at 4° C., then washed 4 times with PBS. Two-hundred microliter of 1% bovine serum albumin-BSA (Sigma-Aldrich, St. Louis, Mo., USA) in PBS was added and the plate was incubated at 4° C. overnight. Rabbit polyclonal anti-ACE-2 antibodies (Sigma Aldrich, St. Louis, Mo., USA) were added in 100 μL/well 1% BSA/PBS solution for 1.5 hours incubation at room temperature (RT). After 3 wash cycles with 0.1% BSA/PBS wells were supplied with 100 μL/well of anti-rabbit IgG antibodies conjugated with horse radish peroxidase (HRP, Sigma, St. Louis, Mo., USA) for 1 hour at RT. After 3 wash cycles with 0.1% BSA/PBS the HRP activity retained was determined by incubation with 100 μL/well TMB substrate solution (Sigma-Aldrich, St. Louis, Mo., USA) for 20 minutes. at RT, followed by the addition of 50 μL/well of 1N H2504 and optical density measurement at 450 nm with microplate reader (Molecular Devices, San Jose, Calif., USA).\nResults are expressed as a percentage of experimental addition—free control (mean±SD, n=6). Non-specific control (wells incubated without anti-ACE2 antibodies) mean value (n=6) was subtracted from all sample values."}, "ACE2 protein [2]": {"tested_on": "ACE2 protein", "experiment": "Western blot of ACE2 protein expression in HMEC", "conditions": "1.0 mM, 6 days", "procedure": "(§2) Human Small Airways Epithelial Cells (SAEC), purchased from ATCC, (Manassas, Va., USA) were cultured in Airways Epithelial Cells growth medium (ATCC) in plastic flasks at 37° C. and 5% CO2. For the experiments, the cells (passage 5-7) were plated to collagen-covered 96-well plates in 100 μL/well growth medium and were grown to confluent layer for 4 to 7 days. Human Microvascular Endothelial Cells isolated from lung (HMEC), purchased from Lonza, (Hayward, Calif., USA) were cultured in EGM-2 MV growth medium (Lonza) in plastic flasks at 37° C. and 5% CO2. […]\n(§3) Western blot: SAEC and HMEC were plated on 6-well plates and supplemented with 0.3, 0.6, 0.8, and 1 mM ascorbic acid, respectively. […] The protein concentration was measured by the Dc protein assay (Bio-Rad, Hercules, Calif., USA). Fifty microgram per well of protein was separated on 8% to 16% gradient SDS-PAGE gels (ie, Tris-based electrophoresis using standard Laemmle's method without (3-ME addition to sample buffer) and transferred to a PVDF membrane. Proteins were detected with commercially available anti-ACE-2 monoclonal antibody diluted 1:250 (R&D, Minneapolis, Minn., USA) and anti-β-actin antibody as a loading control (Cell Signaling, Danvers, Mass., USA)."}, "ACE2 mRNA [3]": {"tested_on": "ACE2 mRNA", "experiment": "qRT-PCR of ACE2 gene expression in HMEC", "format": "cell-based, human", "conditions": "1.0 mM, 6 days, normalised to β-actin", "description": "(§1) After 6 days, total RNA was isolated using RNeasy Plus Mini Kit (Qiagen, Germantown, Md., USA). Next, 2500 ng of each isolate was transcribed in cDNA using RT^2 HT First Strand Kit (Qiagen, Germantown, Md., USA) and subjected to qRTPCR using specific primers for ACE2 (forward primer, SEQ ID. NO. 1-5′-[…] -3′; and reverse primer, SEQ ID. NO. 2-5′-[…] -3) and β-actin (forward primer, SEQ ID. NO. 3-5′-[…] -3′; and reverse primer, SEQ ID. NO. 4-5′-[…] -3′). The PCR was performed with a QuantiTect SYBR® Green PCR Kit as the source of 2.5 mM Mg2+, deoxynucleotides and HotStarTaq DNA polymerase, in addition to each primer used at a concentration of 0.3 μM in a 50 μL qPCR mixture (Qiagen, Germantown, Md., USA) in a BioRad CFX instrument (BioRad, Hercules, Calif., USA). The qPCR cycler conditions were programmed according to the manufacturer's recommendations and were as follows: an activation step at 95° C. for 15 minutes, 40 cycles of: denaturation at 94° C. for 15 seconds, annealing at 60° C. for 30 seconds, and extension at 72° C. for 30 seconds. To verify the specificity and identity of the qPCR product, melting curve analyses were performed. The amount of β-actin cDNA was used to normalize the sample amounts used for determinations. All samples were tested in duplicate PCR reactions and the mean of the reactions was used for calculating the expression levels."}, "ACE2 protein [4]": {"tested_on": "ACE2 protein", "experiment": "Western blot of ACE2 protein expression in SAEC", "conditions": "1.0 mM, 6 days", "procedure": "as §2, §3"}, "ACE2 receptor [5]": {"tested_on": "ACE2 receptor", "experiment": "ACE-2 ELISA assay in Human Aortic Endothelial Cells, 7 days supplementation", "format": "cell-based", "conditions": "50-100 mcM, FIG. 1", "description": "Cell supplementation with ascorbic acid: Cells were supplemented with indicated doses of ascorbic acid (Sigma) in EGM-2 for 7 days with six repetitions for each dose. Experimental medium was changed every 2-3 days with freshly prepared ascorbic acid solution in EGM-2.\nMouse monoclonal anti ACE-2 antibody (Santa Cruz Biotechnology) was added in 100 mcl 1% BSA/PBS for 1.5 h incubation at room temperature (RT). […] After three wash cycles with 0.1% BSA/PBS retained HRP activity was determined by incubation 100 mcl TMB substrate solution (Sigma) for 20 min at RT and addition of 50 mcl of 1N H2SO4 by measuring optical density at 450 nm with micro plate reader (Molecular Devices). Results are expressed as percentage of ascorbate-free Control (mean+/−SD, n=6)."}, "ACE2 mRNA [6]": {"tested_on": "ACE2 mRNA", "experiment": "qRT-PCR of ACE2 gene expression in SAEC", "format": "cell-based, human", "conditions": "1.0 mM, 6 days, normalised to β-actin", "description": "as §1"}, "SAEC": {"tested_on": "SAEC", "experiment": "Cytotoxic effects on SAEC", "format": "cell-based, human"}}, "data": [{"smiles": "C=CCCCCCCCCC(=O)O", "note": "[10-undecanoic acid]", "values": [{"measurement": "decrease of ACE2 expression, individual effect", "setting": "ACE2 receptor [1]; concentration not given, FIG. 9", "value": 18, "unit": "%"}]}, {"smiles": "CC(=O)N[C@@H](CS)C(=O)O", "note": "[NAC]", "values": [{"measurement": "inhibition of ACE2 expression, used individually", "setting": "ACE2 receptor [1]; 2 mM", "value": 18, "unit": "%"}]}, {"smiles": "O=c1c(O)cc([C@H]2Oc3cc(O)cc(O)c3C[C@H]2O)cc2c([C@H]3Oc4cc(O)cc(O)c4C[C@H]3O)cc(O)c(O)c12", "note": "[Theaflavin]", "values": [{"measurement": "inhibition of ACE2 expression, used individually", "setting": "ACE2 receptor [1]; 33 μg/mL and 50 μM respectively, FIG. 10", "value": "about 50%"}]}, {"smiles": "O=C1O[C@H]([C@@H](O)CO)C(O)=C1O", "note": "[ascorbic acid]", "values": [{"measurement": "reduction of ACE2 protein (Western blot)", "setting": "ACE2 protein [2]", "value": 60, "unit": "%"}, {"measurement": "reduction of ACE2 protein (Western blot)", "setting": "ACE2 protein [2]; listed as ascorbate", "value": "significantly lower"}, {"measurement": "ACE2 gene expression decreased by (fold)", "setting": "ACE2 mRNA [3]", "value": 0.54, "unit": "fold"}, {"measurement": "decrease of ACE2 expression", "setting": "ACE2 receptor [1]; 0.6 mM", "value": "about 18%"}, {"measurement": "decrease of ACE2 expression", "setting": "ACE2 receptor [1]; 1.0 mM", "value": 27, "unit": "%"}, {"measurement": "decrease of membrane expression of ACE2", "setting": "ACE2 receptor [1]; 800 mcM, FIG. 4", "value": 27, "unit": "%"}, {"measurement": "reduction of ACE2 protein (Western blot)", "setting": "ACE2 protein [4]", "value": 55, "unit": "%"}, {"measurement": "reduction of ACE2 protein (Western blot)", "setting": "ACE2 protein [4]; listed as ascorbate", "value": "significantly lower"}, {"measurement": "suppression of the expression of the ACE2 receptor", "setting": "ACE2 receptor [5]", "value": "over 50%"}, {"measurement": "ACE2 gene expression decreased by (fold)", "setting": "ACE2 mRNA [6]", "value": 0.61, "unit": "fold"}]}, {"smiles": "CCCCCCCCCCCCCCCC(=O)OC[C@H](O)[C@H]1OC(=O)C(O)=C1O", "note": "[ascorbyl palmitate]", "values": [{"measurement": "inhibition of ACE2 expression", "setting": "ACE2 receptor [1]; 75 μM, FIG. 5B", "value": 50, "unit": "%"}, {"measurement": "concentrations showing cytotoxic effects", "setting": "SAEC", "value": "> 100", "unit": "µM"}]}, {"smiles": "O=c1cc(-c2ccccc2)oc2cc(O)c(O)c(O)c12", "note": "[baicalein]", "values": [{"measurement": "inhibition of ACE2 expression, used individually", "setting": "ACE2 receptor [1]; 25 μM, compared to no ascorbate control, FIG. 7", "value": 75, "unit": "%"}]}]}
